Source: patent US9012648B2, “Haptens of risperidone and paliperidone” (Janssen Pharmaceutica NV, priority 2012, dated 2015)
Values joined by “and” are separate entries in the source; they are usually repeats but may differ in a detail not shown here. Equal entries are not always repeated.

Tests used:
hybridoma subclone 2A5 = assay: Competition ELISA, hybridoma subclone 2A5 supernatant (FIG. 3); format: binding, mouse
Experimental: Supernatants were also tested by competition ELISA to determine if the signals were specific to either risperidone or paliperidone. […] In this competitive format as show in FIG. 4, a low level of analyte (risperidone) results in high signal, whereas a high level of analyte (risperidone) results in low signal. The amount of risperidone in the sample can be calculated from the loss of fluorescence compared to a control sample with no drug present.

[1] = ELISA reactivity of hybridoma supernatants, Ag = Bt-Compound#1 (second TABLE 1); format: binding, mouse
[2] = Dilution 10800, duplicate wells

Molecule	competition ELISA reactivity (in words) (hybridoma subclone 2A5)	ELISA reactivity ([1]; Dilution 400, duplicate wells)	ELISA reactivity ([1]; Dilution 1200, duplicate wells)	ELISA reactivity ([1]; Dilution 3600, duplicate wells)	ELISA reactivity [1, 2]
Cc1nc2n(c(=O)c1CCN1CCC(c3noc4cc(F)ccc34)CC1)CCCC2O (stereo not shown) [paliperidone]	reactivity				
2-(2,5-dioxo-2,5-dihydro-1H-pyrrol-1-yl)-N-(2-((3-(1-(2-(9-hydroxy-2-methyl-4-oxo-6,7,8,9-tetrahydro-4H-pyrido[1,2-a]pyrimidin-3-yl)ethyl)piperidin-4-yl)benzo[d]isoxazol-6-yl)oxy)ethyl)acetamide-keyhole limpet hemocyanin-conjugate [Example 5]		3.2897 and 3.1103	1.4605 and 1.4817	0.4617 and 0.4159	0.1149 and 0.1127
Cc1nc2n(c(=O)c1CCN1CCC(c3noc4cc(OCCN)ccc34)CC1)CCCC2O (stereo not shown) [Example 1, 3-(2-(4-(6-(2-aminoethoxy)benzo[d]isoxazol-3-yl)piperidin-1-yl)ethyl)-9-hydroxy-2-methyl-6,7,8,9-tetrahydro-4H-pyrido[1,2-a]pyrimidin-4-one]		3.2562 and 3.1217	1.3591 and 1.2607	0.3745 and 0.3281	0.0918 and 0.0879
Cc1nc2n(c(=O)c1CCN1CCC(c3noc4cc(F)ccc34)CC1)CCCC2 [risperidone]	reactivity				
